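Following 48 hours of exposure in 96-well plates, responses at five concentrations were used to interpolate endpoints linearly. GI50 = concentration required for 50% inhibition of growth. At the TGI there is no net growth.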
What was measured:
Assay in all cases: NCI tumour cell line growth inhibition, 48 h
786-0 renal = system: 786-0 renal
A498 renal = system: A498 renal
ACHN renal = system: ACHN renal
BT-549 breast = system: BT-549 breast
CAKI-1 renal = system: CAKI-1 renal
CCRF-CEM leukemia = system: CCRF-CEM leukemia
COLO 205 colon = system: COLO 205 colon
DU-145 prostate = system: DU-145 prostate
HCC-2998 colon = system: HCC-2998 colon
HCT-116 colon = system: HCT-116 colon
HCT-15 colon = system: HCT-15 colon
HL-60(TB) leukemia = system: HL-60(TB) leukemia
HOP-62 NSCLC = system: HOP-62 NSCLC
HOP-92 NSCLC = system: HOP-92 NSCLC
HS 578T breast = system: HS 578T breast
HT29 colon = system: HT29 colon
IGROV1 ovarian = system: IGROV1 ovarian
K-562 leukemia = system: K-562 leukemia
KM12 colon = system: KM12 colon
LOX IMVI melanoma = system: LOX IMVI melanoma
M14 melanoma = system: M14 melanoma
MALME-3M melanoma = system: MALME-3M melanoma
MCF7 breast = system: MCF7 breast
MDA-MB-231 breast = system: MDA-MB-231 breast
MDA-MB-435 = system: MDA-MB-435
MOLT-4 leukemia = system: MOLT-4 leukemia
NCI-H226 lung = system: NCI-H226 lung
NCI-H23 lung = system: NCI-H23 lung
NCI-H460 lung = system: NCI-H460 lung
NCI-H522 lung = system: NCI-H522 lung
NCI/ADR-RES ovarian = system: NCI/ADR-RES ovarian
OVCAR-3 ovarian = system: OVCAR-3 ovarian
OVCAR-4 ovarian = system: OVCAR-4 ovarian
OVCAR-5 ovarian = system: OVCAR-5 ovarian
OVCAR-8 ovarian = system: OVCAR-8 ovarian
PC-3 prostate = system: PC-3 prostate
RPMI-8226 leukemia = system: RPMI-8226 leukemia
RXF 393 renal = system: RXF 393 renal
SF-268 CNS = system: SF-268 CNS
SF-539 CNS = system: SF-539 CNS
SK-MEL-2 melanoma = system: SK-MEL-2 melanoma
SK-MEL-28 melanoma = system: SK-MEL-28 melanoma
SK-MEL-5 melanoma = system: SK-MEL-5 melanoma
SK-OV-3 ovarian = system: SK-OV-3 ovarian
SN12C renal = system: SN12C renal
SNB-19 CNS = system: SNB-19 CNS
SNB-75 CNS = system: SNB-75 CNS
SR leukemia = system: SR leukemia
SW-620 colon = system: SW-620 colon
T-47D breast = system: T-47D breast
TK-10 renal = system: TK-10 renal
U251 CNS = system: U251 CNS
UACC-62 melanoma = system: UACC-62 melanoma
UO-31 renal = system: UO-31 renal

Question: `Clc1cc2c(cc1Cl)Oc1cc(Cl)c(Cl)cc1O2` was tested. Which GI50 (786-0 renal) did it give?
Answer: > 625 nM

Question: And the TGI (786-0 renal)?
Answer: > 625 nM

Question: What about the GI50 (A498 renal) of the same compound?
Answer: > 625 nM

Question: What about the TGI (A498 renal) of the same compound?
Answer: > 625 nM

Question: What about the GI50 (ACHN renal) of the same compound?
Answer: > 625 nM

Question: What about the TGI (ACHN renal) of the same compound?
Answer: > 625 nM

Question: And the GI50 (BT-549 breast)?
Answer: > 625 nM

Question: And the TGI (BT-549 breast)?
Answer: > 625 nM

Question: And the GI50 (CAKI-1 renal)?
Answer: > 625 nM

Question: What about the TGI (CAKI-1 renal) of the same compound?
Answer: > 625 nM

Question: And the GI50 (CCRF-CEM leukemia)?
Answer: > 625 nM

Question: And the TGI (CCRF-CEM leukemia)?
Answer: > 625 nM

Question: What about the GI50 (COLO 205 colon) of the same compound?
Answer: > 625 nM

Question: What about the TGI (COLO 205 colon) of the same compound?
Answer: > 625 nM

Question: What about the GI50 (DU-145 prostate) of the same compound?
Answer: > 625 nM

Question: And the TGI (DU-145 prostate)?
Answer: > 625 nM

Question: What about the GI50 (HCC-2998 colon) of the same compound?
Answer: > 625 nM

Question: And the TGI (HCC-2998 colon)?
Answer: > 625 nM

Question: What about the GI50 (HCT-116 colon) of the same compound?
Answer: > 625 nM

Question: What about the TGI (HCT-116 colon) of the same compound?
Answer: > 625 nM

Question: What about the GI50 (HCT-15 colon) of the same compound?
Answer: > 625 nM

Question: What about the TGI (HCT-15 colon) of the same compound?
Answer: > 625 nM

Question: And the GI50 (HL-60(TB) leukemia)?
Answer: > 625 nM

Question: What about the TGI (HL-60(TB) leukemia) of the same compound?
Answer: > 625 nM

Question: And the GI50 (HOP-62 NSCLC)?
Answer: > 625 nM

Question: And the TGI (HOP-62 NSCLC)?
Answer: > 625 nM

Question: And the GI50 (HOP-92 NSCLC)?
Answer: > 625 nM

Question: What about the TGI (HOP-92 NSCLC) of the same compound?
Answer: > 625 nM

Question: What about the GI50 (HS 578T breast) of the same compound?
Answer: > 625 nM

Question: And the TGI (HS 578T breast)?
Answer: > 625 nM

Question: And the GI50 (HT29 colon)?
Answer: > 625 nM

Question: What about the TGI (HT29 colon) of the same compound?
Answer: > 625 nM

Question: What about the GI50 (IGROV1 ovarian) of the same compound?
Answer: > 625 nM

Question: What about the TGI (IGROV1 ovarian) of the same compound?
Answer: > 625 nM

Question: And the GI50 (K-562 leukemia)?
Answer: > 625 nM

Question: And the TGI (K-562 leukemia)?
Answer: > 625 nM

Question: What about the GI50 (KM12 colon) of the same compound?
Answer: > 625 nM

Question: What about the TGI (KM12 colon) of the same compound?
Answer: > 625 nM

Question: What about the GI50 (LOX IMVI melanoma) of the same compound?
Answer: > 625 nM

Question: What about the TGI (LOX IMVI melanoma) of the same compound?
Answer: > 625 nM

Question: And the GI50 (M14 melanoma)?
Answer: > 625 nM

Question: And the TGI (M14 melanoma)?
Answer: > 625 nM

Question: What about the GI50 (MALME-3M melanoma) of the same compound?
Answer: > 625 nM

Question: And the TGI (MALME-3M melanoma)?
Answer: > 625 nM

Question: And the GI50 (MCF7 breast)?
Answer: > 625 nM

Question: And the TGI (MCF7 breast)?
Answer: > 625 nM

Question: And the GI50 (MDA-MB-231 breast)?
Answer: > 625 nM

Question: And the TGI (MDA-MB-231 breast)?
Answer: > 625 nM

Question: What about the GI50 (MDA-MB-435) of the same compound?
Answer: > 625 nM

Question: And the TGI (MDA-MB-435)?
Answer: > 625 nM

Question: What about the GI50 (MOLT-4 leukemia) of the same compound?
Answer: > 625 nM

Question: What about the TGI (MOLT-4 leukemia) of the same compound?
Answer: > 625 nM

Question: And the GI50 (NCI-H226 lung)?
Answer: > 625 nM

Question: What about the TGI (NCI-H226 lung) of the same compound?
Answer: > 625 nM

Question: And the GI50 (NCI-H23 lung)?
Answer: > 625 nM

Question: What about the TGI (NCI-H23 lung) of the same compound?
Answer: > 625 nM

Question: What about the GI50 (NCI-H460 lung) of the same compound?
Answer: > 625 nM

Question: And the TGI (NCI-H460 lung)?
Answer: > 625 nM

Question: And the GI50 (NCI-H522 lung)?
Answer: > 625 nM

Question: And the TGI (NCI-H522 lung)?
Answer: > 625 nM

Question: What about the GI50 (NCI/ADR-RES ovarian) of the same compound?
Answer: > 625 nM

Question: What about the TGI (NCI/ADR-RES ovarian) of the same compound?
Answer: > 625 nM

Question: What about the GI50 (OVCAR-3 ovarian) of the same compound?
Answer: > 625 nM

Question: And the TGI (OVCAR-3 ovarian)?
Answer: > 625 nM

Question: What about the GI50 (OVCAR-4 ovarian) of the same compound?
Answer: > 625 nM

Question: What about the TGI (OVCAR-4 ovarian) of the same compound?
Answer: > 625 nM

Question: And the GI50 (OVCAR-5 ovarian)?
Answer: > 625 nM

Question: And the TGI (OVCAR-5 ovarian)?
Answer: > 625 nM

Question: And the GI50 (OVCAR-8 ovarian)?
Answer: > 625 nM

Question: And the TGI (OVCAR-8 ovarian)?
Answer: > 625 nM

Question: What about the GI50 (PC-3 prostate) of the same compound?
Answer: > 625 nM

Question: And the TGI (PC-3 prostate)?
Answer: > 625 nM

Question: And the GI50 (RPMI-8226 leukemia)?
Answer: > 625 nM

Question: And the TGI (RPMI-8226 leukemia)?
Answer: > 625 nM

Question: And the GI50 (RXF 393 renal)?
Answer: > 625 nM

Question: And the TGI (RXF 393 renal)?
Answer: > 625 nM

Question: And the GI50 (SF-268 CNS)?
Answer: > 625 nM

Question: What about the TGI (SF-268 CNS) of the same compound?
Answer: > 625 nM

Question: What about the GI50 (SF-539 CNS) of the same compound?
Answer: > 625 nM

Question: What about the TGI (SF-539 CNS) of the same compound?
Answer: > 625 nM

Question: What about the GI50 (SK-MEL-2 melanoma) of the same compound?
Answer: > 625 nM

Question: And the TGI (SK-MEL-2 melanoma)?
Answer: > 625 nM

Question: What about the GI50 (SK-MEL-28 melanoma) of the same compound?
Answer: > 625 nM

Question: What about the TGI (SK-MEL-28 melanoma) of the same compound?
Answer: > 625 nM

Question: And the GI50 (SK-MEL-5 melanoma)?
Answer: > 625 nM

Question: And the TGI (SK-MEL-5 melanoma)?
Answer: > 625 nM

Question: And the GI50 (SK-OV-3 ovarian)?
Answer: > 625 nM

Question: What about the TGI (SK-OV-3 ovarian) of the same compound?
Answer: > 625 nM

Question: What about the GI50 (SN12C renal) of the same compound?
Answer: > 625 nM

Question: What about the TGI (SN12C renal) of the same compound?
Answer: > 625 nM

Question: And the GI50 (SNB-19 CNS)?
Answer: > 625 nM

Question: And the TGI (SNB-19 CNS)?
Answer: > 625 nM

Question: And the GI50 (SNB-75 CNS)?
Answer: 304 nM

Question: And the TGI (SNB-75 CNS)?
Answer: > 625 nM

Question: And the GI50 (SR leukemia)?
Answer: > 625 nM

Question: What about the TGI (SR leukemia) of the same compound?
Answer: > 625 nM

Question: What about the GI50 (SW-620 colon) of the same compound?
Answer: > 625 nM

Question: What about the TGI (SW-620 colon) of the same compound?
Answer: > 625 nM

Question: And the GI50 (T-47D breast)?
Answer: > 625 nM

Question: What about the TGI (T-47D breast) of the same compound?
Answer: > 625 nM

Question: And the GI50 (TK-10 renal)?
Answer: > 625 nM

Question: What about the TGI (TK-10 renal) of the same compound?
Answer: > 625 nM

Question: And the GI50 (U251 CNS)?
Answer: > 625 nM

Question: And the TGI (U251 CNS)?
Answer: > 625 nM

Question: And the GI50 (UACC-62 melanoma)?
Answer: > 625 nM

Question: What about the TGI (UACC-62 melanoma) of the same compound?
Answer: > 625 nM

Question: What about the GI50 (UO-31 renal) of the same compound?
Answer: 209 nM

Question: And the TGI (UO-31 renal)?
Answer: > 625 nM
